Literature values, collected in patent US8263578B2, “Stable bortezomib formulations” (InnoPharma, Inc., priority 2010, dated 2012).
Read-outs that look alike come from different tables or passages of the source.

Conditions: 25° C.

SMILES: CC(C)C[C@H](NC(=O)[C@H](Cc1ccccc1)NC(=O)c1cnccn1)B(O)O [Bortezomib, N-(2-pyrazine) carbonyl-L-phenylalanine-L-leucine boronic acid]
- degraded (0.5 mg/mL in ethanol:normal saline solution (2:98, pH 2.8), 1 month): 20%
- degraded (propylene glycol:ethanol:water (50:10:40), 8 months): 20%
